Where two headings read alike, the source gives them in different places.
Experiments:
[1] = Free fraction of Example 1 in plasma; type: in vitro ADME; conditions: human
[2] = Phase 1 ABPM study, pharmacokinetics; type: in vivo, human
Protocol: This was a Phase 1, randomized, double-blind, placebo-controlled, repeat dose, 2-period cross-over study to investigate the effect of BIIB074 300-400 mg bid on ambulatory blood pressure (ABP) in healthy participants (FIG. 2). The study comprised: screening (to occur a maximum of 30 days before the first baseline assessment); two 36-day treatment periods, each preceded by a baseline visit and separated by a 7-day washout (to minimize possible carry over effects); and a follow-up period of 7-14 days after last dose. Prior to this study, no females had received BIIB074; for this reason, a single dose BIIB074 session at the dose level of 400 mg was also conducted in female participants one week prior to the period 1 baseline visit. Following this session, some participants were predicted to exceed the predefined PK limit (area under the plasma concentration-time curve [AUC] 97 μg·h/mL) when receiving 400 mg bid at steady state. Therefore, in the subsequent phases of the study, all female participants received a lower dose of 300 mg bid (males received 400 mg bid).
The primary endpoint was change in 24 h average SBP and DBP from baseline to day 36 as determined by ABPM. Secondary outcome measures included: change in 24 h average SBP and DBP from baseline to days 4 and 15; change in average SBP and DBP within a 12 h dosing interval from baseline to days 14 and 35 (inpatient); change in 24 h average ambulatory heart rate from baseline to days 4, 15 and 36; proportion of participants whose 24 h SBP and DBP increased by <5, 5-9, 10-14, 15-19, and >20 mm Hg compared with baseline; PK parameters of BIIB074 following a single oral dose in healthy female participants, and following repeated oral doses given twice daily to healthy male and female participants; PK/pharmacodynamic (PD) analyses to examine the correlation between ABP and plasma levels and/or metrics of the systemic exposure of BIIB074.
ABPM data were analyzed using a repeated measures mixed effects model, whereby fixed effects were treatment, day, treatment*day, period, average baseline*day, period adjusted baseline*day, sex and treatment*sex; random effect was subject; and repeated effect was day. All summary statistics were carried out using SAS 8.02 for UNIX running under the Harmonisation of Analysis and Reporting Program (HARP) environment. PK parameters were calculated by standard non-compartmental analysis according to working practices and using Win Nonlin Pro v. 5.2.
The safety population was the primary analysis population for this study and included all participants who received one or more doses of BIIB074. The PK population was defined as participants in the safety population for whom a PK sample was obtained and analyzed.

healthy subjects = experiment: Phase 1 valproic acid interaction study, safety and tolerability
From the text: • To evaluate the safety and tolerability of BIIB074 when administered alone and when coadministered with the UGT inhibitor valproic acid. • The endpoints that relate to this objective are the incidence of adverse events (AEs) and serious adverse events (SAEs), and changes in clinical laboratory parameters, vital signs, 12-lead electrocardiograms (ECGs), and Columbia Suicide Severity Rating Scale (C-SSRS) assessments. • To evaluate the effect of the UGT inhibitor valproic acid on the PK of the M13, M14, and M16 metabolites of BIIB074. • The endpoints that relate to this objective are: Cmax, AUCinf, AUClast, Tmax, Tlast, t1/2, and metabolite to parent ratio in AUC (MRAUC) of the M13, M14, and M16 metabolites of BIIB074
1. A single oral dose of BIIB074 administered in the morning on Days 1 and 16 following an 8-hour fast. The Day 16 dose was coadministered with the morning dose of valproic acid. 2. Valproic acid 500 mg TID was administered on Days 8 through 22. The morning dose on Day 16 was coadministered with BIIB074 following an 8-hour fast. 3. Blood samples for BIIB074 and metabolite PK collected predose and through 168 hours postdose on Days 1 through 8 and Days 16 through 23. 4. Single blood samples collected on Days 13 through 15 prior to the morning dose of valproic acid only, in order to determine valproic acid trough levels.

dogs = experiment: Preclinical safety pharmacology, cardiovascular parameters; type: in vivo, dog; conditions: data not shown
From the text: (§1) The 36 day treatment duration in this study was rationally designed to determine whether tolerance developed for any potential effects of BIIB074 on SBP or DBP, since BP effects resolved by day 28 in the earlier phase 1 trial. The data from this study show a slight trend towards a decrease in the BP difference between BIIB074 and placebo between day 4 and day 35, although differences were minimal at all time points. […] Thus, the body of evidence, encompassing clinical and preclinical studies, supports safety and minimal effects of BIIB074 on BP/cardiovascular parameters.

rats = experiment: Tyramine-induced hypertension; type: in vivo, rat; conditions: data not shown
From the text: as §1

[3] = tested on: patients with lumbosacral radiculopathy; conditions: PLSR, 350 mg bid, Phase 2, cited from earlier work
healthy participants = experiment: Phase 1 cross-over study, ambulatory blood pressure monitoring (ABPM); type: in vivo, human; conditions: one-sided 95% CI excluding effect ≥5 mmHg

Molecule Cl.NC(=O)[C@@H]1CC[C@H](c2ccc(OCc3ccccc3F)cc2)N1 [Example 1, (5R)-5-(4-{[(2-Fluorophenyl)methyl]oxy}phenyl)-L-prolinamide hydrochloride] has a fraction unbound ([1]; listed as 150 mg tid) of 0.032, a fraction unbound ([1]; listed as 200 mg bid) of 0.036 and a fraction unbound ([1]; listed as 250 mg tid) of 0.032. The fraction unbound ([1]; listed as 350 mg bid) was 0.032, the AUCex ([2]; 400 mg single dose, female) was 15.2% and the tmax ([2]; Day 1, 300 mg bid, female) was 1.50 h. For the same molecule, the tmax ([2]; Day 14, 300 mg bid, female) was 1.50 h, the “AUC(0-12)” value ([2]; Day 14, 400 mg bid, male) was 32100 (23.5) ng · h/mL and the Cmax ([2]; Day 35, 300 mg bid, female) was 3990 (26.6) ng/mL. The “AUC(0-24) in males (400 mg bid) higher than in females (300 mg bid)” value ([2]; days 14 and 35, on average) was 10%, the “Cmax in males (400 mg bid) higher than in females (300 mg bid)” value ([2]; days 14 and 35, on average) was 11-19% and the “Dose-normalized AUC lower in male than in female participants” value ([2]; repeat dosing, days 14 and 35) was 17-18%. The “Dose-normalized Cmax lower in male than in female participants” value ([2]; repeat dosing, days 14 and 35) was 11-17%, the Abdominal pain (healthy subjects; human, in vivo) was 0 n (%) and the Asthenia (healthy subjects; human, in vivo) was 0 n (%). For the same molecule, the Cardiac disorders (healthy subjects; human, in vivo) was 0 n (%), the Diarrhoea (healthy subjects; human, in vivo) was 0 n (%) and the Dizziness (healthy subjects; human, in vivo) was 0 n (%). For the same molecule, the Dyspepsia (healthy subjects; human, in vivo) was 0 n (%), the “Events leading to drug withdrawal” value (healthy subjects; human, in vivo) was 0 n (%) and the “Events leading to study withdrawal” value (healthy subjects; human, in vivo) was 0 n (%). For the same molecule, the Faeces soft (healthy subjects; human, in vivo) was 0 n (%), the Gastrointestinal disorders (healthy subjects; human, in vivo) was 1 (3.3) n (%) and the “General disorders and administration site conditions” value (healthy subjects; human, in vivo) was 0 n (%). For the same molecule, the Glossodynia (healthy subjects; human, in vivo) was 1 (3.3) n (%), the Headache (healthy subjects; human, in vivo) was 1 (3.3) n (%) and the Nausea (healthy subjects; human, in vivo) was 0 n (%). For the same molecule, the Nervous system disorders (healthy subjects; human, in vivo) was 1 (3.3) n (%), the Non-cardiac chest pain (healthy subjects; human, in vivo) was 0 n (%) and the “Number of subjects with any event” value (healthy subjects; human, in vivo) was 2 (6.7) n (%). The Pallor (healthy subjects; human, in vivo) was 0 n (%), the Palpitations (healthy subjects; human, in vivo) was 0 n (%) and the Pruritus (healthy subjects; human, in vivo) was 0 n (%). The Related event (healthy subjects; human, in vivo) was 0 n (%), the Related serious event (healthy subjects; human, in vivo) was 0 n (%) and the Serious event (healthy subjects; human, in vivo) was 0 n (%). For the same molecule, the “Severity: Mild” value (healthy subjects; human, in vivo) was 2 (6.7) n (%), the “Severity: Moderate” value (healthy subjects; human, in vivo) was 0 n (%) and the “Severity: Severe” value (healthy subjects; human, in vivo) was 0 n (%). For the same molecule, the “Skin and subcutaneous tissue disorders” value (healthy subjects; human, in vivo) was 0 n (%), the “TEAEs considered related to BIIB074” value (healthy subjects; human, in vivo) was “No TEAEs were considered related to BIIB074” and the Vascular disorders (healthy subjects; human, in vivo) was 0 n (%). The Vomiting (healthy subjects; human, in vivo) was 0 n (%), the Safety conclusion (healthy subjects; in vivo) was “safe and well tolerated” and the Fatal event (healthy subjects; per treatment period) was 0 n (%). For the same molecule, the “Effects on cardiovascular parameters” value (dogs) was “no effects”, the “Effects on tyramine-induced hypertension” value (rats) was “no effects” and the Clinical efficacy ([3]; hydrochloride) was “EFFICACY OBSERVED in”. The Clinical efficacy ([3]; listed as CNV1014802, hydrochloride) was “demonstrated clinical benefit” and the “Non-inferiority to placebo, inpatient ABPM” value (healthy participants) was “non-inferiority of BIIB074 compared with placebo was demonstrated”.
